In patent US20260078120A1, “SUBSTITUTED PYRIDOPYRIMIDINONES” (MIRATI THERAPEUTICS, INC., priority 2022, published 2026):

Assays:
[1] = test system: T47D (PI3Kα H1047R mutant) cells; assay: CellTiter-Glo 2.0 luminescent cell viability assay, 72 hours, T47D cells; type: cell-based; details: Homo sapiens, T47D, 72 h, T47D (PI3Kα H1047R mutant) cells, CellTiter-Glo, approximately 72 hours; read-out: T47D (H1047R mutant) Viability IC50
Description: This Example illustrates that exemplary compounds of the present invention decrease the viability of cells.
(§1) The ability of a compound of Formula (I) to decrease the viability of cells was measured using CellTiter-Glo 2.0 (CTG) Luminescent Cell Viability Assay (#G9241) obtained from Promega (Madison, WI).
To prepare assay plates for viability assays, cells were trypsinized, resuspended in fresh media, and viable cells were counted utilizing trypan blue exclusion. T47D, SKBR3, or MKN1 cells were seeded at 1000 cells in 30 μl per well in a solid white flat bottom 384 cell culture plate (Perkin Elmer #6007680) and incubated at 37° C. overnight.
(§2) Assay day 1, cells were dosed using an Echo Liquid Handler (Beckman Coulter) with compounds at a 10 um starting concentration and serially diluted (1:4) for a total of 10 concentrations. Cells were incubated for approximately 72 hours with the compounds (solubilized in DMSO) at 37° C. After 72 hours of treatment, cell plates were equilibrated to room temperature before adding 15 μl of CTG to each well, plates were then covered in aluminum foil to protect from light, incubated at room temperature for 30 minutes on a microtiter plate shaker, and luminescence readings were collected using a CLARIOstar microplate reader (BMG Labtech, Germany). Percent of vehicle control values were plotted as log (inhibitor) vs. response-Variable slope (four parameters) for curve fitting and IC50 values were determined using XLfit.

[2] = test system: SKBR3 (PI3Kα wild type) cells; assay: CellTiter-Glo 2.0 luminescent cell viability assay, 72 hours, SKBR3 cells; type: cell-based; details: Homo sapiens, SK-BR-3, 72 h, SKBR3 (PI3Kα wild type) cells, CellTiter-Glo, approximately 72 hours; read-out: SKBR3 (WT) Viability IC50
Description: as §1
To prepare assay plates for viability assays, cells were trypsinized, resuspended in fresh media, and viable cells were counted utilizing trypan blue exclusion.
as §2

Row | IC50 [1] | IC50 [2] | Structure (SMILES)
1 | > 10000 nM | > 10 µM | Cc1cc([C@H](C)Nc2ccccc2C(=O)O)c2nc([C@H]3CCN(C)C(=O)C3)cc(=O)n2c1 [Example 11-374, 2-(((S)-1-(7-methyl-2-((S)-1-methyl-2-oxopiperidin-4-yl)-4-oxo-4H-pyrido[1,2-a]pyrimidin-9-yl)ethyl)amino)benzoic acid]
2 | 323 nM | > 10 µM | Cc1cc([C@@H](C)Nc2ccccc2C(=O)O)c2nc(N3CC4CC3C4)c(C)c(=O)n2c1 [Example 11-127, (R)-2-((1-(2-(2-azabicyclo[2.1.1]hexan-2-yl)-3,7-dimethyl-4-oxo-4H-pyrido[1,2-a]pyrimidin-9-yl)ethyl)amino)benzoic acid]
3 | 12.3 nM | > 10 µM | CCOCC1CCN(c2nc3c([C@@H](C)Nc4ccccc4C(=O)O)cc(C)cn3c(=O)c2C)CC1 [Example 10-4, (R)-2-((1-(2-(4-(ethoxymethyl)piperidin-1-yl)-3,7-dimethyl-4-oxo-4H-pyrido[1,2-a]pyrimidin-9-yl)ethyl)amino)benzoic acid]
4 | 386 nM | > 10 µM | Cc1cc(C(C)Nc2ccccc2C(=O)O)c2nc(N3CCN(c4ccccc4)CC3)cc(=O)n2c1 (stereo not shown) [Example 11-335, 2-((1-(7-methyl-4-oxo-2-(4-phenylpiperazin-1-yl)-4H-pyrido[1,2-a]pyrimidin-9-yl)ethyl)amino)benzoic acid]

The next lines start with the compound.

Row | Structure (SMILES) | IC50 [1] | IC50 [2]
5 | Cc1cc([C@H](C)Nc2ccc(F)cc2C(=O)O)c2nc(N3Cc4ccccc4C3)c(C)c(=O)n2c1 [Example 11-365, (S)-5-fluoro-2-((1-(2-(isoindolin-2-yl)-3,7-dimethyl-4-oxo-4H-pyrido[1,2-a]pyrimidin-9-yl)ethyl)amino)benzoic acid] | 3270 nM | > 10 µM
6 | Cc1cc([C@@H](C)Nc2ccccc2C(=O)O)c2nc(N3CCN(c4c(C)cccc4C)CC3)c(C)c(=O)n2c1 [Example 11-37, (R)-2-((1-(2-(4-(2,6-dimethylphenyl)piperazin-1-yl)-3,7-dimethyl-4-oxo-4H-pyrido[1,2-a]pyrimidin-9-yl)ethyl)amino)benzoic acid] | 816 nM | > 10 µM
7 | CCC(O)c1cc(C)cn2c(=O)cc(N3CCCCC3)nc12 (stereo not shown) [Example 11-410, 9-(1-hydroxypropyl)-7-methyl-2-(piperidin-1-yl)-4H-pyrido[1,2-a]pyrimidin-4-one] | > 10000 nM | > 10 µM
8 | Cc1cc(C(C)Nc2cc(F)ccc2C(=O)O)c2nc(N3Cc4ccccc4C3)c(C)c(=O)n2c1 (stereo not shown) [Example 11-364, 4-fluoro-2-((1-(2-(isoindolin-2-yl)-3,7-dimethyl-4-oxo-4H-pyrido[1,2-a]pyrimidin-9-yl)ethyl)amino)benzoic acid] | 5420 nM | > 10 µM
9 | Cc1cc([C@@H](C)Nc2ccc(Cl)nc2C(=O)O)c2nc(N3CCN(c4ccc(F)cc4)C[C@H]3C)c(C#N)c(=O)n2c1 [Example 11-131, 6-chloro-3-(((R)-1-(3-cyano-2-((R)-4-(4-fluorophenyl)-2-methylpiperazin-1-yl)-7-methyl-4-oxo-4H-pyrido[1,2-a]pyrimidin-9-yl)ethyl)amino)picolinic acid] | 310 nM | > 10 µM
10 | Cc1cc([C@@H](C)Nc2ccccc2C(=O)O)c2nc(N3CC(C(F)F)C3)c(C#N)c(=O)n2c1 [Example 11-104, (R)-2-((1-(3-cyano-2-(3-(difluoromethyl)azetidin-1-yl)-7-methyl-4-oxo-4H-pyrido[1,2-a]pyrimidin-9-yl)ethyl)amino)benzoic acid] | 306 nM | > 10 µM
11 | Cc1cc([C@@H](C)Nc2ccccc2C(=O)O)c2nc(N3CCN(c4ccccc4)CC3)c(C)c(=O)n2c1 [Example 11-273, (R)-2-((1-(3,7-dimethyl-4-oxo-2-(4-phenylpiperazin-1-yl)-4H-pyrido[1,2-a]pyrimidin-9-yl)ethyl)amino)benzoic acid] | 3100 nM | 7.39 µM
